Experimental data published in patent US20120101153A1, “ROCAGLAOL DERIVATIVES AS CARDIOPROTECTANT AGENTS AND AS ANTINEOPLASTIC AGENTS” (Universite De Strasbourg, priority 2008, published 2012).
Read-outs that look alike come from different tables or passages of the source.

Tests used:
[1] = test system: SK-OV3 cells (OV3); test: MTS assay, cytotoxicity, OV3; conditions: Homo sapiens, SK-OV-3, read-out: Cytotoxicity (IC50)
Description: (§1) The human cell lines HL60 (promyeocytic leukaemia), MDA435 (breast ductal carcinoma; ATCC reference HBT129) and MDA231 (breast adenocarcinoma; ATCC reference HBT26) were obtained from ATCC. […] SK-OV3 cells (or OV3, ATCC reference HTB77) were kindly provided by NCI (Frederick, Md.).
(§2) The cell lines HCT116, HCT15, MCF7, MDA435, MDA231, PC3, OV3, HL60R and HL60 were grown in RPMI medium, in particular supplemented with 10% fetal calf serum, in the presence of penicillin, streptomycin and fungizone in 75 cm^2 flask under 5% CO2. […] The medium was changed every 2-3 days.
(§3) Cells were plated in 96-well tissue culture plates in 200 μl medium and cultured during 24 h before to be treated with compounds dissolved in DMSO (compound concentrations at a range of 0.5 nM to 10 μM) using a Biomek 2000 or 3000 (Beckman). Controls received the same volume of DMSO (1% final volume). After a 72 h exposure, MTS reagent (Promega) was added and incubated for 3 h at 37° C. The absorbance was then monitored at 490 nm and results were expressed as the value [1-(OD490 treated/OD490 control)×100] corresponding to the percentage of inhibition of cell proliferation.

[2] = test system: PC3 (prostate adenocarcinoma); test: MTS assay, cytotoxicity, PC3; conditions: Homo sapiens, read-out: Cytotoxicity (IC50)
Description: (§4) The human cell lines HCT116 (colon adenocarcinoma), PC3 (prostate adenocarcinoma) and HCT15 (colon adenocarcinoma) were obtained from ECACC (Wiltshire, UK).
(§5) The cell lines HCT116, HCT15, MCF7, MDA435, MDA231, PC3, OV3, HL60R and HL60 were grown in RPMI medium, in particular supplemented with 10% fetal calf serum, in the presence of penicillin, streptomycin and fungizone in 75 cm^2 flask under 5% CO2.
as §3

[3] = test system: HL60R (resistant HL60 cells); test: MTS assay, cytotoxicity, HL60R; conditions: Homo sapiens, read-out: Cytotoxicity (IC50)
Description: as §5, §3

[4] = test system: MDA435 (breast ductal carcinoma); test: MTS assay, cytotoxicity, MDA435; conditions: Homo sapiens, MDA435, read-out: Cytotoxicity (IC50)
Description: as §1, §2, §3

[5] = test system: MDA231 (breast adenocarcinoma); test: MTS assay, cytotoxicity, MDA231; conditions: Homo sapiens, MDA-MB-231, read-out: Cytotoxicity (IC50)
Description: as §1, §2, §3

[6] = test system: KB (epidermoid carcinoma); test: MTS assay, inhibition of cell proliferation, KB; conditions: Homo sapiens, read-out: Cytotoxicity (IC50)
Description: The human cell lines KB (epidermoid carcinoma) and HepG2 (hepatocarcinoma) were obtained from ECACC (Salisbury, UK) and grown in D-MEM medium supplemented with 10% fetal calf serum, in the presence of penicilline, streptomycine and fungizone in 75 cm^2 flask under 5% CO2.
as §3

[7] = test system: HL60 (promyeocytic leukaemia); test: MTS assay, inhibition of cell proliferation, HL60
Description: as §1, §2, §3

[8] = test system: HCT116 (colon adenocarcinoma); test: MTS assay, inhibition of cell proliferation, HCT116; conditions: Homo sapiens, HCT-116, read-out: Cytotoxicity (IC50)
Description: as §4, §5, §3

[9] = test system: H9c2 cardiomyocytes; conditions: 10 or 100 nM; apoptosis induced by doxorubicin in H9c2 cells
Description: The medium was changed every 2-3 days.
H9c2 cells were plated for 24 h in 100 mm Petri dishes at 0,7×10^4 cells/cm^2. Next, the cells were washed and cultured for 12 h in glucose-free medium (Gibco, DMEM w-L-glutamine, w/o D-glucose, sodium pyruvate) supplemented with only 1% fetal calf serum. […] Cells were washed, and subsequently FACS analyses were performed.
Apoptosis was analysed by fluorescence-activated cell sorting analysis (FACS-Calibur, Becton-Dickinson Biosciences). 0,5×10^6 cells were harvested, washed with Annexin Binding Buffer (0,01 M HEPES, 0,14 M NaCl, 2,5 mM CaCl2) and labeled with annexin V (dilution 1:50) and propidium iodide (6,7 μg/ml). All assays were performed at least in triplicate, and the results were analyzed by BD Cell Quest Pro software (Becton-Dickinson Biosciences, Le Pont De Claix, France).

[10] = Homo sapiens, HL-60, read-out: Cytotoxicity (IC50)
[11] = read-out: Cytotoxicity (IC50), HL60, MTS, Table 2

Row | Structure (SMILES) | IC50 [1] | IC50 [2] | IC50 [3] | IC50 [4] | IC50 [5] | IC50 [6] | IC50 [7, 10] | IC50 [8] | Activity for cytotoxicity and cardioprotection (FIG. 13) [9] | IC50 [7, 11]
1 | COC(=O)[C@H]1[C@@H](O)[C@@]2(O)c3ccc(OC)cc3O[C@@]2(c2ccc(Br)cc2)[C@@H]1c1ccccc1 (racemic) [FL5, Methyl 3a-(4-bromophenyl)-1,8b-dihydroxy-8-methoxy-1-oxo-3-phenyl-2,3-3a,8b-tetrahydro-cyclopenta[b]benzofuran-2-carboxylate] | 101 nM | 174 nM | 44 nM | 65 nM | 27 nM | 165 nM | 65 nM | 96 nM | – | –
2 | COc1ccc2c(c1)O[C@@]1(c3ccc(Br)cc3)[C@H](c3ccccc3)C[C@@H](O)[C@@]21O (racemic) [FL6, 3a-(4-Bromophenyl)-8-methoxy-3-phenyl-1,2,3,3a-tetrahydro-cyclopenta[b]benzofuran-1,8b(1H)-diol] | 251 nM | 224 nM | 67 nM | 205 nM | 48 nM | 255 nM | 115 nM | 108 nM | no or weak such activity | –
3 | COC(=O)[C@H]1[C@@H](O)[C@@]2(O)c3c(OC)cc(OC)cc3O[C@@]2(c2ccc(Br)cc2)[C@@H]1c1ccccc1 (racemic) [FL10, Methyl 3a-(4-bromophenyl)-1,8b-dihydroxy-6,8-dmethoxy-1-oxo-3-phenyl-2,3-3a,8b-tetrahydro-cyclopenta[b]benzofuran-2-Carboxylate] | 21 nM | 29 nM | 14 nM | 15 nM | 8.7 nM | 24 nM | 14 nM | 18 nM | – | –
4 | COC(=O)[C@H]1[C@@H](O)[C@@]2(O)c3ccc(OCCCO)cc3O[C@@]2(c2ccc(OC)cc2)[C@@H]1c1ccccc1 (racemic) [FL11] | 1460 nM | 2520 nM | 1280 nM | 1110 nM | 1070 nM | 1710 nM | 1120 nM | 1420 nM | no or weak such activity | –
5 | COc1cc(OC)c2c(c1)O[C@@]1(c3ccc(Br)cc3)[C@H](c3ccccc3)[C@@H](C(=O)N(C)C)[C@@H](O)[C@@]21O (racemic) [FL12, 3a-(4-Bromophenyl)-1,8b-dihydroxy-6,8-dimethoxy-N,N-dimethyl-1-oxo-3-phenyl-2,3-3a,8b-tetrahydro-cyclopenta[b]benzofuran-2-carboxamide] | 6.7 nM | 7.2 nM | 12 nM | 3.2 nM | 2.7 nM | 7 nM | 4 nM | 5.9 nM | – | –
6 | CNC(=O)[C@H]1[C@@H](O)[C@@]2(O)c3c(OC)cc(OC)cc3O[C@@]2(c2ccc(Br)cc2)[C@@H]1c1ccccc1 (racemic) [FL13, 3a-(4-Bromophenyl)-1,8b-dihydroxy-6,8-dimethoxy-N-methyl-1-oxo-3-phenyl-2,3-3a,8b-tetrahydro-cyclopenta[b]benzofuran-2-carboxamide] | 3.8 nM | 3.3 nM | 16 nM | 2.6 nM | 1.9 nM | 4 nM | 2 nM | 3.8 nM | – | –
7 | COc1cc(OC)c2c(c1)O[C@@]1(c3ccc(Br)cc3)[C@H](c3ccccc3)[C@@H](C(N)=O)[C@@H](O)[C@@]21O (racemic) [FL14, 3a-(4-Bromophenyl)-1,8b-dihydroxy-6,8-dimethoxy-1-oxo-3-phenyl-2,3-3a,8b-tetrahydro-cyclopenta[b]benzofuran-2-carboxamide] | 2.1 nM | 3.7 nM | 18 nM | 1.5 nM | 1 nM | 2 nM | 1 nM | 1.8 nM | – | –
8 | COc1ccc([C@@]23Oc4cc(OC)cc(OC)c4[C@]2(O)[C@H](O)C[C@H]3c2cccc(F)c2)cc1 (racemic) [FL15, 3a-(4-methoxyphenyl)-6,8-dimethoxy-3-(3-fluorophenyl)-1,2,3,3a-tetrahydro-cyclopenta[b]benzofuran-1,8b(1H)-diol] | – | – | – | – | – | 60 nM | – | – | – | –
9 | COC(=O)[C@H]1[C@@H](O)[C@@]2(O)c3c(OC)cc(OC)cc3O[C@@]2(c2ccc(OC)cc2)[C@@H]1c1cccc(F)c1 (racemic) [FL16, Methyl 3a-(4-methoxyphenyl)-1,8b-dihydroxy-6,8-dimethoxy-1-oxo-3-(3-fluorophenyl)-2,3-3a,8b-tetrahydro-cyclopenta[b]benzofuran-2-carboxylate] | – | – | – | – | – | 28 nM | – | – | – | –
10 | COc1cc(OC)c2c(c1)O[C@@]1(c3ccc(Br)cc3)[C@H](c3cccc(F)c3)[C@@H](C(N)=O)[C@@H](O)[C@@]21O (racemic) [FL18, 3a-(4-Bromophenyl)-1,8b-dihydroxy-6,8-dimethoxy-1-oxo-3-(3-fluorophenyl)-2,3-3a,8b-tetrahydro-cyclopenta[b]benzofuran-2-carboxamide] | – | – | – | – | – | 14 nM | – | – | – | –
11 | COc1cc(OC)c2c(c1)O[C@@]1(c3ccc(Br)cc3)[C@H](c3ccccc3)C[C@@H](OC=O)[C@@]21O (racemic) [FL19, 3a-(4-Bromophenyl)-6,8-dimethoxy-3-phenyl-1,2,3,3a-tetrahydro-cyclopenta[b]benzofuran-1,8b(1H)-diol 1-formate] | – | – | – | – | – | – | 7 nM | – | – | –
12 | COc1cc(OC)c2c(c1)O[C@@]1(c3ccc(Br)cc3)[C@H](c3ccccc3)C[C@@H](OC(C)=O)[C@@]21O (racemic) [FL20, 3a-(4-Bromophenyl)-6,8-dimethoxy-3-phenyl-1,2,3,3a-tetrahydro-cyclopenta[b]benzofuran-1,8b(1H)-diol 1-acetate] | – | – | – | – | – | – | 40 nM | – | – | –
13 | CCC(=O)O[C@@H]1C[C@@H](c2ccccc2)[C@]2(c3ccc(Br)cc3)Oc3cc(OC)cc(OC)c3[C@]12O (racemic) [FL21, 3a-(4-Bromophenyl)-6,8-dimethoxy-3-phenyl-1,2,3,3a-tetrahydro-cyclopenta[b]benzofuran-1,8b(1H)-diol 1-propionate] | – | – | – | – | – | – | 50 nM | – | – | –
14 | COc1cc(OC)c2c(c1)OC1(c3ccc(Br)cc3)C(c3ccccc3)CC(NC=O)C21O (stereo not drawn) [FL22, 3a-(4-Bromophenyl)-6,8-dimethoxy-8b-hydroxy-3-phenyl-1,2,3,3a-tetrahydro-cyclopenta[b]benzofuran-1,8b(1H)-formamide] | – | – | – | – | – | – | – | – | – | 44 nM
15 | COc1cc(OC)c2c(c1)OC1(c3ccc(Br)cc3)C(c3ccccc3)CC(NC=O)C21O (stereo not drawn) [FL23, 3a-(4-Bromophenyl)-6,8-dimethoxy-8b-hydroxy-3-phenyl-1,2,3,3a-tetrahydro-cyclopenta[b]benzofuran-1,8b(1H)-formamide] | – | – | – | – | – | – | – | – | – | 2 nM
16 | COc1cc(OC)c2c(c1)OC1(c3ccc(Br)cc3)C(c3ccccc3)CC(NS(C)(=O)=O)C21O (stereo not drawn) [FL24, 3a-(4-Bromophenyl)-6,8-dimethoxy-8b-hydroxy-3-phenyl-1,2,3,3a-tetrahydro-cyclopenta[b]benzofuran-1,8b(1H)-methanesulfonamide] | – | – | – | – | – | – | – | – | – | 580 nM
17 | COc1cc(OC)c2c(c1)OC1(c3ccc(Br)cc3)C(c3ccccc3)CC(NS(C)(=O)=O)C21O (stereo not drawn) [FL25, 3a-(4-Bromophenyl)-6,8-dimethoxy-8b-hydroxy-3-phenyl-1,2,3,3a-tetrahydro-cyclopenta[b]benzofuran-1,8b(1H)-methanesulfonamide] | – | – | – | – | – | – | – | – | – | 16 nM
18 | CC(=O)O[C@@]12CO[C@@H]1C[C@H](O)[C@@]1(C)C(=O)[C@H](O)C3=C(C)[C@@H](OC(=O)[C@H](O)[C@@H](NC(=O)OC(C)(C)C)c4ccccc4)C[C@@](O)([C@@H](OC(=O)c4ccccc4)[C@H]21)C3(C)C [Taxotere, reference compound] | 0.51 nM | 1.4 nM | 531 nM | 0.25 nM | 0.018 nM | 0.17 nM | 0.5 nM | 0.52 nM | – | –
19 | CC[C@]1(O)C[C@@H]2CN(CCc3c([nH]c4ccccc34)[C@@](C(=O)OC)(c3cc4c(cc3OC)N(C)[C@H]3[C@@](O)(C(=O)OC)[C@H](OC(C)=O)[C@]5(CC)C=CCN6CC[C@]43[C@@H]65)C2)C1 [Vinblastin, vinblastine, reference compound] | 2.7 nM | 5.5 nM | > 100 nM | 1.24 nM | 0.63 nM | 0.8 nM | 1.11 nM | 1.42 nM | – | –
